Numbers after ± are expanded uncertainties.
Conditions: Liquid; for vapor or sublimation pressure: Closed cell (Static) method; for mass density: 101.33 kPa, Vibrating tube method

| mass density (298.15 K) | Compound | vapor or sublimation pressure (293.15 K) | vapor or sublimation pressure (298.15 K) | vapor or sublimation pressure (303.15 K) | vapor or sublimation pressure (308.15 K) | vapor or sublimation pressure (313.15 K) |
| --- | --- | --- | --- | --- | --- | --- |
| 1058.56 ± 0.12 kg/m3 | c1ccsc1 [thiophene] | 8.19 ± 0.13 kPa | 10.4 ± 0.14 kPa | 12.97 ± 0.15 kPa | 16.1 ± 0.17 kPa | 19.4 ± 0.17 kPa |
| 1006.75 ± 1.1 kg/m3 | CCCC[N+]1(C)CCCC1.N#CC(=C=[N-])C#N [1-butyl-1-methylpyrrolidinium tricyanomethanide] |  |  |  |  |  |
| 1036.62 ± 1.2 kg/m3 | CCCC[n+]1ccc(C)cc1.N#CC(=C=[N-])C#N [1-butyl-4-methylpyridinium tricyanomethanide] |  |  |  |  |  |

| Compound | mass density (298.15 K) | vapor or sublimation pressure (293.15 K) | vapor or sublimation pressure (298.15 K) | vapor or sublimation pressure (303.15 K) | vapor or sublimation pressure (308.15 K) | vapor or sublimation pressure (313.15 K) |
| --- | --- | --- | --- | --- | --- | --- |
| c1ccncc1 [pyridine] | 982.85 ± 0.11 kg/m3 | 2.1 ± 0.1 kPa | 2.77 ± 0.11 kPa | 3.62 ± 0.11 kPa | 4.68 ± 0.11 kPa | 6 ± 0.11 kPa |
